In data set [1] the test system is LMP1 dependent upregulation of PML NBs. In words: Transfection/inhibitor studies of LMP1 upregulation of PML NBs. In kind it is cell-based. How it is done:
A series of transfection/inhibitor studies were carried out to investigate the mechanism of upregulation of the PML-NB by LMP1. […] Either inhibition of ERK phosphorylation by U0126 or Stat3 dimerization by Stattic, however, prevented the LMP1 dependent upregulation of PML NBs.

The next data set has as its system EBV Zta mRNA. In kind it is cell-based, Epstein-Barr virus.
The subject of a further data set is EBV BMRF1 mRNA. It is filed as cell-based, Epstein-Barr virus. Conditions: 10 nM ATO and/or 40 μM GCV.
A further data set concerns CNE1<EBV BX1> tumors. In words: CNE1<EBV BX1> nasopharyngeal carcinoma xenograft, tumor volume. Particulars: 21 days of once daily treatment; GCV 100 μg/g, ATO 100 ng/g; carrier control just under double. In kind it is in vivo, male nude mice.
In another data set the test system is EBV Zta protein. In kind it is in vivo, male nude mice. Conditions: mouse, in vivo.
Another data set relates to LCL<EBV1-13> cells. In kind it is cell-based, human.
The subject of data set [2] is uninfected parental A549 cells. Particulars: 4 days, 10 nM ATO, 40 μM GCV.
Data set [3] deals with APL and non-APL cell lines. Particulars: Konig et al., 1997; cited from earlier work.
In data set [4] the test system is nonmalignant blood mononuclear cells from normal donors. Conditions: cited from earlier work.

For the compound `O=[N+]([O-])c1ccc2c(c1)S(=O)(=O)C=C2` [Stattic], the “effect on LMP1 upregulation of PML NBs” value in data set [1] is given as “prevented”.

Consider `Cc1ccc(NCCCc2ccccc2)c(N)c1` [JSH23], for which the “effect on LMP1 upregulation of PML NBs” value in [1] is on record as “did not affect”.

Turning to `Nc1nc2c(ncn2COC(CO)CO)c(=O)[nH]1` [GCV, 9-[[2-hydroxy-1-(hydroxymethyl)-ethoxy]methyl]guanine], the “Zta mRNA expression over 7 days” value with EBV Zta mRNA is recorded as “no effect”. In addition, the “BMRF1 mRNA expression over 7 days” value in the data set with EBV BMRF1 mRNA is reported as “no effect”. The “tumor size increase over size at day 7 (pre-treatment)” value with CNE1<EBV BX1> tumors is recorded as “approximately 25%”. For the same compound, in the data set on EBV Zta protein, the “Zta expression in tumor explant tissue” value is “Only the occasional Zta positive cell”. The “viable cells after a third day of treatment compared with two days” value with LCL<EBV1-13> cells is given as “did not result in reducing the number of viable cells”. Moreover, the “viability of uninfected parental cells” value in data set [2] is listed as “did not affect the viability”.

On to `Nc1nc(N)nc(Nc2ccc([As]3SCC(CO)S3)cc2)n1` (centres unmarked) [Melarsoprol, melarsoprol], for which the “activity against APL and non-APL cell lines” value in data set [3] is listed as “at least equivalent to that of arsenic trioxide”.

`N#CC(=C(/N)Sc1ccccc1N)/C(C#N)=C(\N)Sc1ccccc1N` [U0126]: in [1], the “effect on LMP1 upregulation of PML NBs” value is reported as “prevented”.

On to `C[As](C)SC[C@H](NC(=O)CC[C@H](N)C(=O)O)C(=O)NCC(=O)O` [SGLU1, S-(dimethylarsino) glutathione], for which the “toxicity against nonmalignant blood mononuclear cells” value in data set [4] is “low toxicity”.
